Assay results published in paper PMC12785453, “Oral Fluid Concentrations and Pharmacological Effects of Clephedrone and Methylone in Humans” (International Journal of Molecular Sciences, 2025).

Test system: healthy volunteers
Experiment: Subjective effects, visual analog scales (VAS), clephedrone study
Assay type: in vivo, humans
Excerpt: The study evaluating the acute effects of clephedrone was designed as a non-controlled, prospective, observational, and naturalistic study. The procedures and evaluations included in this study have been described in previous studies evaluating other synthetic cathinones (mephedrone, methylone, alpha-PVP, NEP, HEXEN), phenethylamines (2C-B and 2C-E), or synthetic cannabinoids (JWH-122, JWH-210, UR-144).
This study consisted of one experimental session in which participants (N = 8; 6 women, 2 men) selected their oral dose of clephedrone based on their drug use experience and preferences. According to their dose selection, 3 women and 1 man ingested 100 mg of clephedrone, while the remaining 3 women and 1 man opted for a higher dose of 150 mg. […] Participants were recruited by word of mouth by the harm reduction organization Energy Control in Barcelona (Associació Benestar i Desenvolupament, ABD).
Subjective effects were evaluated with visual analog scales (VAS), the short form of the Addiction Research Center Inventory (ARCI), and the Evaluation of Subjective Effects of Substances with Abuse Potential questionnaire (VESSPA-SSE). In addition, the Sensitivity to Drug Reinforcement Questionnaire (SDRQ) and a pharmacological identification class questionnaire were used in the controlled study administering methylone.
VAS encompassed several adjectives that participants had to rate from “not at all” (0 mm) to “extremely” (100 mm) according to their sensations. This scale included 28 items: intensity, stimulated, high, good effects, bad effects, liking, changes in distances, changes in colors, changes in shapes, changes in lights, hallucinations (seeing lights or spots), hallucinations (seeing things, animals, insects, or people), changes in hearing, hallucinations (hearing sounds or voices), drowsiness, concentration, dizziness, confusion, different or changed body feeling, unreal body feeling, different surroundings, unreal surroundings, open, trust, feeling close to others, I want to be with other people, I want to hug someone, sexual desire, and sexual arousal.
Participants included in the naturalistic clephedrone study completed VAS at baseline, 0.50, 1, 1.5, 2, 3, 4, and 5 h, and ARCI and VESSPA at baseline, 1, 2, 3, 4, and 5 h after self-administering clephedrone. In the controlled study, VAS was performed at baseline and 0.25, 0.50, 0.75, 1, 1.5, 2, 3, 4, 6, 8, 10, and 24 h, and ARCI and VESSPA at baseline and 1, 2, 3, 4, 6, 8, and 10 h after administering methylone. Participants completed SDRQ and VAS sexual desire and arousal at baseline, 1 and 10 h, and the pharmacological class identification questionnaire at 8 h.
For statistical analysis, values of physiological (SBP, DBP, HR, and T) and subjective effects (VAS, ARCI, and VESSPA-SSE) were baseline–adjusted. Maximum effects (Emax) and the time needed to reach maximum effects (Tmax) were determined, and the area under the curve up to 5 h (AUC0–5h) for clephedrone and up to 6 h (AUC0–6h) for methylone was calculated using the trapezoidal rule. Emax and AUC values are presented as mean ± standard deviation, whereas Tmax is presented in median (range).
To find possible significant changes through the time course compared to baseline, a Dunnett multiple comparison test was carried out to compare each time point with baseline in both drug conditions. For clephedrone the comparisons were 0–0.5 h, 0–1 h, 0–1.5 h, 0–2 h, 0–3 h, 0–4 h and 0–5 h, and for methylone this analysis included 0–0.25 h, 0–0.5 h, 0–0.75 h, 0–1 h, 0–1.5 h, 0–2 h, 0–3 h, 0–4 h and 0–6 h. Given their different study designs, no comparative analysis between the time courses of both synthetic cathinones was conducted.

[1] = 100 or 150 mg oral, n=8, listed as clephedrone
[2] = AUC0–5h, 100 or 150 mg oral, n=8

With `CNC(C)C(=O)c1ccc(Cl)cc1` (centres unmarked) [Clephedrone, 4-chloromethcathinone] the Hallucinogenic effects (100 or 150 mg oral) was “did not evidence any hallucinogenic effects”, the “Tmax of the high-scoring VAS subjective effects” value (100 or 150 mg oral) was 3 h and the “VAS Bad effects Emax” value (100 or 150 mg oral, n=8) was 0.38 ± 0.74 mm. For the same compound, the “VAS Changes in colors Emax” value (100 or 150 mg oral, n=8) was 1.13 ± 2.80 mm, the “VAS Changes in colors Tmax” value (100 or 150 mg oral, n=8) was 0.0 (0.0–3.0) h and the “VAS Changes in distances Emax” value (100 or 150 mg oral, n=8) was 1.88 ± 4.55 mm. The “VAS Changes in distances Tmax” value (100 or 150 mg oral, n=8) was 0.0 (0.0–2.0) h, the “VAS Changes in hearing Emax” value (100 or 150 mg oral, n=8) was 8.75 ± 16.24 mm and the “VAS Changes in hearing Tmax” value (100 or 150 mg oral, n=8) was 0.0 (0.0–4.0) h. For the same compound, the “VAS Changes in lights Emax” value (100 or 150 mg oral, n=8) was 4.75 ± 9.79 mm, the “VAS Changes in lights Tmax” value (100 or 150 mg oral, n=8) was 0.0 (0.0–4.0) h and the “VAS Concentration Emax” value (100 or 150 mg oral, n=8) was 22.13 ± 16.65 mm. For the same compound, the “VAS Confusion Emax” value (100 or 150 mg oral, n=8) was 3.00 ± 3.82 mm, the “VAS Different or changed body feeling Emax” value (100 or 150 mg oral, n=8) was 39.63 ± 22.15 mm and the “VAS Different surroundings Emax” value (100 or 150 mg oral, n=8) was 13.75 ± 23.50 mm. The “VAS Dizziness Emax” value (100 or 150 mg oral, n=8) was 1.13 ± 1.81 mm, the “VAS Drowsiness Emax” value (100 or 150 mg oral, n=8) was 14.25 ± 22.86 mm and the “VAS Feeling close to others Emax” value (100 or 150 mg oral, n=8) was 53.38 ± 13.79 mm. For the same compound, the “VAS Good effects Emax” value (100 or 150 mg oral, n=8) was 58.50 ± 20.46 mm, the “VAS High Emax” value (100 or 150 mg oral, n=8) was 54.25 ± 20.19 mm and the “VAS I want to be with other people Emax” value (100 or 150 mg oral, n=8) was 34.63 ± 28.16 mm. The “VAS I want to hug someone Emax” value (100 or 150 mg oral, n=8) was 37.63 ± 28.01 mm, the “VAS Intensity Emax” value (100 or 150 mg oral, n=8) was 49.13 ± 17.18 mm and the “VAS Liking Emax” value (100 or 150 mg oral, n=8) was 59.00 ± 18.56 mm. For the same compound, the “VAS Open Emax” value (100 or 150 mg oral, n=8) was 49.25 ± 18.78 mm, the “VAS Sexual arousal Emax” value (100 or 150 mg oral, n=8) was 20.13 ± 18.70 mm and the “VAS Sexual desire Emax” value (100 or 150 mg oral, n=8) was 20.63 ± 19.60 mm. The “VAS Stimulated Emax” value (100 or 150 mg oral, n=8) was 48.75 ± 14.47 mm, the “VAS Trust Emax” value (100 or 150 mg oral, n=8) was 53.75 ± 20.62 mm and the “VAS Unreal body feeling Emax” value (100 or 150 mg oral, n=8) was 2.13 ± 4.16 mm. The “VAS Unreal surroundings Emax” value (100 or 150 mg oral, n=8) was 1.50 ± 4.24 mm, the “VAS Concentration Emax” value [1] was “exceeding 20 mm” and the “VAS Different or changed body feeling Emax” value [1] was over 30 mm. For the same compound, the “VAS Feeling close to others Emax” value [1] was “exceeding 40 mm”, the “VAS Good effects Emax” value [1] was “exceeding 40 mm” and the “VAS High Emax” value [1] was “exceeding 40 mm”. The “VAS I want to be with other people Emax” value [1] was over 30 mm, the “VAS I want to hug someone Emax” value [1] was over 30 mm and the “VAS Intensity Emax” value [1] was “exceeding 40 mm”. For the same compound, the “VAS Liking Emax” value [1] was “exceeding 40 mm”, the “VAS Open Emax” value [1] was “exceeding 40 mm” and the “VAS Sexual arousal Emax” value [1] was “exceeding 20 mm”. For the same compound, the “VAS Sexual desire Emax” value [1] was “exceeding 20 mm”, the “VAS Stimulated Emax” value [1] was “exceeding 40 mm” and the “VAS Trust Emax” value [1] was “exceeding 40 mm”. The “VAS Bad effects AUC0-5/6 h” value [2] was 0.38 ± 0.74 mm·h, the “VAS Changes in colors AUC0-5/6 h” value [2] was 1.75 ± 4.75 mm·h and the “VAS Changes in distances AUC0-5/6 h” value [2] was 1.53 ± 3.76 mm·h. For the same compound, the “VAS Changes in hearing AUC0-5/6 h” value [2] was 12.44 ± 23.03 mm·h, the “VAS Changes in lights AUC0-5/6 h” value [2] was 6.41 ± 14.74 mm·h and the “VAS Concentration AUC0-5/6 h” value [2] was 45.34 ± 33.03 mm·h. For the same compound, the “VAS Confusion AUC0-5/6 h” value [2] was 3.72 ± 5.72 mm·h, the “VAS Different or changed body feeling AUC0-5/6 h” value [2] was 87.38 ± 52.74 mm·h and the “VAS Different surroundings AUC0-5/6 h” value [2] was 25.56 ± 52.75 mm·h. For the same compound, the “VAS Dizziness AUC0-5/6 h” value [2] was 0.97 ± 1.49 mm·h, the “VAS Drowsiness AUC0-5/6 h” value [2] was 13.25 ± 20.39 mm·h and the “VAS Feeling close to others AUC0-5/6 h” value [2] was 116.56 ± 42.59 mm·h. For the same compound, the “VAS Good effects AUC0-5/6 h” value [2] was 129.66 ± 50.22 mm·h, the “VAS High AUC0-5/6 h” value [2] was 118.63 ± 44.24 mm·h and the “VAS I want to be with other people AUC0-5/6 h” value [2] was 62.94 ± 49.65 mm·h. For the same compound, the “VAS I want to hug someone AUC0-5/6 h” value [2] was 80.38 ± 74.45 mm·h, the “VAS Intensity AUC0-5/6 h” value [2] was 112.03 ± 34.05 mm·h and the “VAS Liking AUC0-5/6 h” value [2] was 134.09 ± 48.13 mm·h. For the same compound, the “VAS Open AUC0-5/6 h” value [2] was 112.56 ± 51.16 mm·h, the “VAS Sexual arousal AUC0-5/6 h” value [2] was 44.44 ± 49.02 mm·h and the “VAS Sexual desire AUC0-5/6 h” value [2] was 44.69 ± 48.58 mm·h. The “VAS Stimulated AUC0-5/6 h” value [2] was 104.81 ± 29.68 mm·h, the “VAS Trust AUC0-5/6 h” value [2] was 126.91 ± 60.79 mm·h and the “VAS Unreal body feeling AUC0-5/6 h” value [2] was 3.13 ± 6.75 mm·h. The “VAS Unreal surroundings AUC0-5/6 h” value [2] was 1.50 ± 4.24 mm·h and the “Time of peak pharmacological effects” value (oral) was 3 h.
